# pEC50: −log10 of the molar value.
# Test system: Aβ42 secretion
# Assay: Cellular γ-secretase assay (inhibition of Aβ42 secretion)
# Assay type: cell-based
# Conditions: Homo sapiens, 22 h, human neuroglioma H4 cells overexpressing human APP, 22 hours incubation
# Procedure: Cellular γ-Secretase Assay
# The compounds were investigated in accordance with the test given hereinafter.
# Human neuroglioma H4 cells overexpressing human APP were plated at 30,000 cells/well/200 μL in 96-well plates in IMDM media containing 10% FCS, […] Hygromycin B and incubated for 2 hours at 37° C., 5% CO2 prior to adding test compounds.
# Compounds for testing were dissolved in 100% Me2SO yielding in a 10 mM stock solution. Typically 12 μL of these solutions were further diluted in 1000 μL of IMDM media (w/o FCS). Subsequent 1:1 dilutions gave a ten point dose response curve. 100 μL of each dilution was added to the cells in 96-well plates. Appropriate controls using vehicle only and reference compound were applied to this assay. The final concentration of Me2SO was 0.4%.
# After incubation for 22 hours at 37° C., 5% CO2, 50 μL supernatant was transferred into round-bottom 96-well polypropylene plates for detection of Aβ42. 50 μL assay buffer (50 mM Tris/Cl, pH 7.4, 60 mM NaCl, 0.5% BSA, 1% TWEEN 20) was added to the wells followed by the addition of 100 μL of detection antibody (ruthenylated BAP15 0.0625 μg/mL in assay buffer). 50 μL of a premix of capture antibody (biotinylated 6E10 antibody, 1 μg/mL) and Streptavidin-coated magnetic beads (Dynal M-280, 0.125 mg/mL) were preincubated for 1 hour at room temperature before adding the assay plates. Assay plates were incubated on a shaker for 3 hours at room temperature and finally read in the Bioveris M8 Analyser according to the manufacturer's instructions (Bioveris).
# IC50 values for inhibition of Aβ42 secretion were calculated by nonlinear regression fit analysis using XLfit 4.0 software (IDBS).
row,SMILES,pEC50
1,"CC(C)S(=O)(=O)N1CCCC(c2ccc3[nH]c(C(=O)Nc4cc(F)cc(F)c4)cc3c2)C1 (stereo not shown) [Example 50, 5-[1-(Propane-2-sulfonyl)-piperidin-3-yl]-1H-indole-2-carboxylic acid (3,5-difluoro-phenyl)-amide]",6.69
2,"CC(C)C1(c2ccc3[nH]c(C(=O)Nc4ccc(F)c(F)c4)cc3c2)CNC(=O)C1 (stereo not shown) [Example 18, 5-(3-Isopropyl-5-oxo-pyrrolidin-3-yl)-1H-indole-2-carboxylic acid (3,4-difluoro-phenyl)-amide]",5.63
3,"CC(C)C(=O)N1CC[C@H](c2ccc3[nH]c(C(=O)Nc4cc(F)cc(F)c4)cc3c2)C1 [Example 105, 5-((R)-1-Isobutyryl-pyrrolidin-3-yl)-1H-indole-2-carboxylic acid (3,5-difluoro-phenyl)-amide]",5.92
4,"O=C(Nc1ccc(F)cc1)c1cc2cc(C3CCN(Cc4ccccc4)CC3)ccc2[nH]1 [Example 38, 5-(1-Benzyl-piperidin-4-yl)-1H-indole-2-carboxylic acid (4-fluoro-phenyl)-amide]",5.89
5,"CCCN1CCC(c2ccc3[nH]c(C(=O)Nc4ccc(F)cc4)cc3c2)CC1 [Example 40, 5-[1-Propyl-piperidin-4-yl]-1H-indole-2-carboxylic acid (4-fluoro-phenyl)-amide]",5.77
6,"O=C(Nc1cc(F)cc(F)c1)c1cc2cc(C3CCCN(C(=O)c4ccccc4)C3)ccc2[nH]1 (stereo not shown) [Example 55, 5-(1-Benzoyl-piperidin-3-yl)-1H-indole-2-carboxylic acid (3,5-difluoro-phenyl)-amide]",6.35
7,"CC(c1ccc2[nH]c(C(=O)Nc3cc(F)cc(F)c3)cc2c1)N1CCCC1=O (stereo not shown) [Example 88, 5-[1-(2-Oxo-pyrrolidin-1-yl)-ethyl]-1H-indole-2-carboxylic acid (3,5-difluoro-phenyl)-amide]",6.49
8,"O=C(Nc1cncc(F)c1)c1cc2cc(C3CCN(S(=O)(=O)c4ccc(F)cc4)C3)ccc2[nH]1 (stereo not shown) [Example 84, 5-(1-(4-Fluorophenylsulfonyl)pyrrolidin-3-yl)-N-(5-fluoropyridin-3-yl)-1H-indole-2-carboxamide]",5.31
9,"CC(C)N1CCC[C@@H](c2ccc3[nH]c(C(=O)Nc4cccc(F)c4)cc3c2)C1 [Example 111, 5-((S)-1-Isopropyl-piperidin-3-yl)-1H-indole-2-carboxylic acid (3-fluoro-phenyl)-amide]",6.06
10,"CC(CN1CCCC1)c1ccc2[nH]c(C(=O)Nc3cccc(F)c3)cc2c1 (stereo not shown) [Example 99, N-(3-Fluorophenyl)-5-(1-(pyrrolidin-1-yl)propan-2-yl)-1H-indole-2-carboxamide]",5.90
11,"Cn1cnc(S(=O)(=O)N2CCCC(c3ccc4[nH]c(C(=O)Nc5cc(F)cc(F)c5)cc4c3)C2)c1 (stereo not shown) [Example 58, 5-[1-(1-Methyl-1H-imidazole-4-sulfonyl)-piperidin-3-yl]-1H-indole-2-carboxylic acid (3,5-difluoro-phenyl)-amide]",6.13
12,"N#Cc1cc(F)cc(NC(=O)c2cc3cc(C4CCN(Cc5ccccc5)C4)ccc3[nH]2)c1 (stereo not shown) [Example 5, 5-(1-Benzylpyrrolidin-3-yl)-N-(3-cyano-5-fluorophenyl)-1H-indole-2-carboxamide]",6.20
13,C[C@H](CN1CCCC1)c1ccc2[nH]c(C(=O)Nc3cccc(F)c3)cc2c1 [Example 118],6.12
14,"CC(C)C(=O)N1CCC(c2ccc3[nH]c(C(=O)Nc4cc(F)cc(F)c4)cc3c2)C1 (stereo not shown) [Example 13, 5-(1-Isobutyryl-pyrrolidin-3-yl)-1H-indole-2-carboxylic acid (3,5-difluoro-phenyl)-amide]",6.15
15,"CCC(=O)N1CCC(c2ccc3[nH]c(C(=O)Nc4ccc(F)cc4)cc3c2)CC1 [Example 44, 5-(1-Propionyl-piperidin-4-yl)-1H-indole-2-carboxylic acid (4-fluoro-phenyl)-amide]",5.36
16,"O=C(Nc1cccc(F)c1)c1cc2cc(C3CCCN(CC4CCCO4)C3)ccc2[nH]1 (stereo not shown) [Example 68, N-(3-Fluorophenyl)-5-(1-((tetrahydrofuran-2-yl)methyl)piperidin-3-yl)-1H-indole-2-carboxamide]",6.11
17,"CC(C)OC(=O)N1CCC(c2ccc3[nH]c(C(=O)Nc4cncc(F)c4)cc3c2)C1 (stereo not shown) [Example 77, isopropyl 3-(2-(5-fluoropyridin-3-ylcarbamoyl)-1H-indol-5-yl)pyrrolidine-1-carboxylate]",5.42
18,"CC(C)C(=O)N1CC[C@@H](c2ccc3[nH]c(C(=O)Nc4cc(F)cc(F)c4)cc3c2)C1 [Example 106, 5-((S)-1-Isobutyryl-pyrrolidin-3-yl)-1H-indole-2-carboxylic acid (3,5-difluoro-phenyl)-amide]",6.05
19,"COCCN1CCC(c2ccc3[nH]c(C(=O)Nc4ccc(F)cc4)cc3c2)CC1 [Example 37, 5-[1-(2-Methoxy-ethyl)-piperidin-4-yl]-1H-indole-2-carboxylic acid (4-fluoro-phenyl)-amide]",5.84
20,"C[C@@H](c1ccc2[nH]c(C(=O)Nc3cc(F)cc(F)c3)cc2c1)[C@H]1CCN(CC(F)(F)F)C1 [Example 121, N-(3,5-Difluorophenyl)-5-((R)-1-((R)-1-(2,2,2-trifluoroethyl)pyrrolidin-3-yl)ethyl)-1H-indole-2-carboxamide]",5.13
21,"CC(C)N1CCC(c2ccc3[nH]c(C(=O)Nc4ccc(F)c(F)c4)cc3c2)CC1 [Example 28, 5-(1-Isopropyl-piperidin-4-yl)-1H-indole-2-carboxylic acid (3,4-difluoro-phenyl)-amide]",6.07
22,"CC(c1ccc2[nH]c(C(=O)Nc3cc(F)cc(F)c3)cc2c1)C1CCN(C(C)C)C1 (stereo not shown) [Example 93, N-(3,5-Difluorophenyl)-5-(1-(1-isopropylpyrrolidin-3-yl)ethyl)-1H-indole-2-carboxamide]",5.93
23,"N#Cc1ccc(N2CCC(c3ccc4[nH]c(C(=O)Nc5cncc(F)c5)cc4c3)C2)nn1 (stereo not shown) [Example 83, 5-(1-(6-Cyanopyridazin-3-yl)pyrrolidin-3-yl)-N-(5-fluoropyridin-3-yl)-1H-indole-2-carboxamide]",5.48
24,"O=C(Nc1cccc(F)c1)c1cc2cc(C3CCCNC3)ccc2[nH]1 (stereo not shown) [Example 69, N-(3-Fluorophenyl)-5-(piperidin-3-yl)-1H-indole-2-carboxamide]",6.18
25,"COCC(=O)N1CCCC(c2ccc3[nH]c(C(=O)Nc4cc(F)cc(F)c4)cc3c2)C1 (stereo not shown) [Example 57, 5-[1-(2-Methoxy-acetyl)-piperidin-3-yl]-1H-indole-2-carboxylic acid (3,5-difluoro-phenyl)-amide]",6.18
26,"CC(C)N1CCCC(c2ccc3[nH]c(C(=O)Nc4cccc(F)c4)cc3c2)C1 (stereo not shown) [Example 46, 5-(1-Isopropyl-piperidin-3-yl)-1H-indole-2-carboxylic acid (3-fluoro-phenyl)-amide]",6.23

# Same assay, conditions: human neuroglioma H4 cells overexpressing human APP, 22 hours incubation
row,SMILES,pEC50
1,"CC(C)S(=O)(=O)N1CCC(c2ccc3[nH]c(C(=O)Nc4cc(F)cc(F)c4)cc3c2)C1 (stereo not shown) [Example 12, 5-[1-(Propane-2-sulfonyl)-pyrrolidin-3-yl]-1H-indole-2-carboxylic acid (3,5-difluoro-phenyl)-amide]",5.77
2,"CN1CCC(c2ccc3[nH]c(C(=O)Nc4cc(F)cc(F)c4)cc3c2)C1 (stereo not shown) [Example 2, 5-(1-Methyl-pyrrolidin-3-yl)-1H-indole-2-carboxylic acid (3,5-difluoro-phenyl)-amide]",6.75
